Test [1] deals with T1, streptavidin (Streptomyces avidinii, UniProt P22629).
T1 construct: purchased GE Healthcare (Little Chalfont, UK)
In words: SPR analysis of peptide binding to immobilized streptavidin (Biacore X100). As to conditions: for type of SPR binding kinetics: SPR sensorgrams, immobilized streptavidin. As to the method:
SPR analysis of peptide binding to streptavidin was performed with streptavidin immobilized on a chip and peptides in solution (see Materials and Methods).
Surface Plasmon Resonance (SPR) experiments were performed using a Biacore X100 instrument (GE Healthcare). 60 µl of 100 µg/ml streptavidin in 10 mM Na-acetate (pH 5.0) was immobilized to flow cell 2 (Fc2) of a sensor chip CM5 (GE Healthcare) using the Amine Coupling Kit (GE Healthcare) at 20 °C for 6 min. Peptide stock solutions were prepared at 5 or 10 mM in H2O and diluted in HBS-EP+ (GE Healthcare) buffer. Peptide binding was performed in a multiple kinetics mode using HBS-EP+ as a running buffer and 0.2 M NaCl, 10 mM NaOH, or 10 mM HCl-glycine (pH 1.7) as the regeneration buffer. Binding kinetics parameters were calculated using Biacore X100 software.

The target in test [2] is T1, streptavidin. In words: Cy5-streptavidin binding on cyclic discovery array, paired cyclic/linear 5-mer L/D-peptides. The conditions noted are these: Cy5-SA, three independent replicates on the same array, cyclic vs linear features. An excerpt: To identify cyclic peptide binders to streptavidin, Cy5-SA was bound to an array library of 388,962 5-mer L/D-peptides. The pentameric peptides were composed of a 4-mer peptide synthesized with a combination of uncharged L- and D-amino acids and a γ-Glu: this residue enabled synthesis of both head-to-tail cyclic and linear peptides, respectively, for each peptide through either allyl ester or t-butyl ester C-terminal protection (see Materials and Methods for amino acid composition and cyclization protocol). The paired cyclic and linear array features were spatially positioned side-by-side to control for potential variations in cyclization yield for each peptide. The fluorescence signal intensities across three independent replicates on the same array were compared and the ratio cyclic to linear peptide of signal intensities was compared.
The combined cyclic and linear peptide libraries were synthesized starting with either the allyl ester (OAll) or t-butyl ester, respectively, of N-(2-nitrophenyl)propoxycarbonyl (NPPOC)-protected glutamate (γ-Glu) linked to the array surface through the carboxylic acid side chain. […]
Cy5 fluorescence intensity of the arrays was measured with an MS200 scanner (Roche NimbleGen, Madison, WI) at resolution 2 µm, wavelength 635 nm, gain 25%, and laser intensity 100%. […]

The target of test [3] is T1, streptavidin. Kind of test: Cy5-streptavidin binding on HotSpot discovery array, 5-mer L-peptide library. The procedure, abridged: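 Array of 2,476,099 5-mer peptides (19 amino acids, no cysteine) with Gly-Ser linkers, probed overnight at 4 °C with 0.5 µg/ml Cy5-streptavidin in Tris pH 7.4 buffer containing casein or BSA plus Tween-20. Cy5 fluorescence read at 635 nm; peptides selected by signal-to-background >4 across three arrays.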

[4] abbreviates: 5-mer L-peptide library array, Cy5-streptavidin, from average of three arrays.
Setting [5] is: 5-mer L-peptide library array, Cy5-streptavidin, from the average of three arrays.

The source of these data is paper PMC5608804, “Stepwise Evolution Improves Identification of Diverse Peptides Binding to a Protein Target” (Scientific Reports, 2017).

Square brackets hold non-standard residues; d marks the D form. Ends that are not written are not given here. Peptide text beside a SMILES is read from it.

T1 sequence (P22629 25-183): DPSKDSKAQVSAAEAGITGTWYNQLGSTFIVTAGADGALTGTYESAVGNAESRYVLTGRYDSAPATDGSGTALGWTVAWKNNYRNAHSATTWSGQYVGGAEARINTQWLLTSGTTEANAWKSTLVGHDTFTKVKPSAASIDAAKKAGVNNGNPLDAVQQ

For `NC(=O)CC[C@H](NC(=O)[C@H](Cc1c[nH]c2ccccc12)NC(=O)[C@H]1CCCN1C(=O)[C@H](CCC(N)=O)NC(=O)[C@@H](N)CC(N)=O)C(=O)O` [NH2-NQpWQ-COOH] (H-NQ[dP]WQ-OH), in test [1] (peptide concentrations of ≤2 mM), the “binding in SPR” value was “no measurable binding”.

Consider `NC(=O)CC[C@@H]1NC(=O)[C@H](Cc2c[nH]c3ccccc23)NC(=O)[C@H]2CCCN2C(=O)[C@H](CCC(N)=O)NC(=O)[C@H](CC(N)=O)NC1=O` [NQpWQ (head-to-tail cyclic)] (cyclo(NQ[dP]WQ)), for which the “fluorescence signal intensity on cyclic discovery array” value in test [2] is listed as “highest fluorescence signal intensity”. Further, the “type of SPR binding kinetics” value in test [1] was “fast on/fast off”.

As for “AFPDYLAEYHGG-NH2 [NH2-AFPDYLAEYHGG-amide]”, the “fold improvement of Kd over the HPQ peptide also developed in this study” value in test [1] (SPR Kd versus EWVHPQFEQKAK) amounted to 100 fold. The “fold improvement of Kd over Strep-tag II HPQ” value in test [1] (SPR Kd versus Strep-tag II HPQ) is given as 1,000 fold.

With “EWVHPQFEQKAK-NH2 [NH2-EWVHPQFEQKAK-amide]”, the “type of SPR binding kinetics” value in test [1] is “fast on/fast off”.

For H-GNSFDDWLASKG-NH2, in test [1], the “type of SPR binding kinetics” value is reported as “irreversible binding kinetics”. Besides, the “equilibrium dissociation constant (Kd)” value in test [1] (SPR, streptavidin amine-coupled to CM5 chip, peptides in HBS-EP+, steady-state affinity for fast on/fast off peptides, otherwise 1:1 binding model) was “irreversible binding”.

For the compound “SAWSHPQFEK [NH2-SAWSHPQFEK-COOH, reference compound]”, the “type of SPR binding kinetics” value in test [1] is listed as “fast on/fast off”.

Regarding YQHPQ, the “S/B (signal to background ratio)” value in test [3] (setting [4]) is recorded as 172.3.

For YRGHP, in test [3] (signal to background ratio, 5-mer L-peptide library array, Cy5-streptavidin), the S/B is 5.3.

As to YRHPM, the “S/B (signal to background ratio)” value in test [3] (setting [5]) worked out at 71.5.

Take YRHPQ: the “S/B (signal to background ratio)” value in test [3] (setting [4]) is on record as 185.8.

Consider YSHPM, for which, in test [3] (setting [5]), the “S/B (signal to background ratio)” value came out at 69.2.

YSHPQ: the “S/B (signal to background ratio)” value in test [3] (setting [4]) turned out to be 171.8.

For YTHPQ, the “S/B (signal to background ratio)” value in test [3] (setting [4]) is given as 174.6.

YVHPQ: in test [3] (setting [4]), the “S/B (signal to background ratio)” value is on record as 145.8.

Consider YWHPM, for which the “S/B (signal to background ratio)” value in test [3] (setting [4]) was determined as 54.2.

In the case of YWHPQ, the “S/B (signal to background ratio)” value in test [3] (setting [4]) stood at 148.0.

For the compound “YWTDG [L-amino acid 5-mer array peptide]”, the “S/B (signal to background ratio)” value was found to be 4.7 in test [3] (5-mer L-peptide library, from the average of three arrays) and 4.7 in test [3] (average of three arrays, L-peptide 5-mer library).

With YYHPQ, in test [3] (setting [4]), the “S/B (signal to background ratio)” value amounted to 190.0.
